The values below come from patent US20120202806A1, “Novel Pyrimidine- And Triazine-Hepcidine Antagonists” (VIFOR (INTERNATIONAL) AG, priority 2009, published 2012).

For the first assay, the target named is T1, human ferroportin (Fpn) (Homo sapiens, UniProt Q9NP59).
T1 construct: expressed in transfected cells
T1 sequence (Q9NP59 1-571): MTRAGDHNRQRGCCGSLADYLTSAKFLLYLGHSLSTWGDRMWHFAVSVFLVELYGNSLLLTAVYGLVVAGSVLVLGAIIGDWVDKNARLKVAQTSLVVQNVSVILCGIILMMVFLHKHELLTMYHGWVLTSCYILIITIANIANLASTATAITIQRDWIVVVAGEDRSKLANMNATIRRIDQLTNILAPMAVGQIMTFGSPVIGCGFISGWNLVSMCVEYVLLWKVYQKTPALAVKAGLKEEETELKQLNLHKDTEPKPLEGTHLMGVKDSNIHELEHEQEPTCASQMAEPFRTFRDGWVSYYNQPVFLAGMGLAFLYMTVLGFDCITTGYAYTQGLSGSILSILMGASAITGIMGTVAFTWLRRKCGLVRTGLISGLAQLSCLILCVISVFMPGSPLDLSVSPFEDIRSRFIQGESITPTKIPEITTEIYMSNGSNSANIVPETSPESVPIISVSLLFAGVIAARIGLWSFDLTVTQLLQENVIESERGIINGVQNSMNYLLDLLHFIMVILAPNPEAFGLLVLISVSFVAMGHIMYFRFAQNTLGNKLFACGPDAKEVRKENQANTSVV
Description: Ferroportin internalisation assay (inhibition of hepcidin-induced internalisation of Fpn in MDCK-FPN-HaloTag cells). It counts as cell-based. To be noted: 100 nM hepcidin, overnight incubation, 11 concentrations 0.04 to 40 μM. How it is done:
The antagonistic effect against hepcidin of the pyrimidine and triazine compounds of the present invention was determined by means of the ferroportin internalisation assay described below.
Low molecular weight organic compounds which counteract the biological effects of hepcidin on its receptor, the iron exporter ferroportin (Fpn) were identified on the basis of their ability to inhibit hepcidin-induced internalisation of Fpn in living cells. A stable cell line (Madin-Darby Canine Kidney, MDCK) was produced for this purpose to express constitutively human ferroportin which is fused recombinantly with a fluorescent reporter protein (HaloTag®, Promega Corp.) at its C terminus. The internalisation of Fpn was monitored by marking these cells with fluorescent ligands (HaloTag® TMR, tetramethylrhodamine) which attach themselves covalently to the HaloTag reporter gene fused with the Fpn. […] Optimised image analysis algorithms were used to detect the cell surface and to quantify the corresponding membrane fluorescence associated with the Fpn-HaloTag fusion protein.
`COc1cnc(CN)nc1NC(C)C` [Example 50, (2-Aminomethyl-5-methoxy-pyrimidin-4-yl)-isopropyl-amine] returned an IC50 of less than 50 µM.

`COc1cnc(-c2ccccn2)nc1N(C)Cc1ccccc1` [Example 24, Benzyl-(5-methoxy-2-pyridin-2-yl-pyrimidin-4-yl)-methyl-amine] gave an IC50 of more than 50 µM.

Still in this assay, the particulars now being: 10 μM substance, 100 nM hepcidin, inhibition of Fpn internalisation, read-out: I [%] (Median Inhibition [%] at 10 μM substance conc.).
As for `COc1ccc(O)c(/C=N/Nc2nc(N3CCOCC3)nc(N3CCOCC3)n2)c1` [Example 9, 2-[(4,6-Dimorpholin-4-yl-[1,3,5]triazin-2-yl)-hydrazonomethyl]-4-methoxy-phenol], the inhibition at 10 µM was more than 50%.

On to `COc1cnc(-c2ccccn2)nc1NC(C)C` [Example 1, Isopropyl-(5-methoxy-2-pyridin-2-yl-pyrimidin-4-yl)-amine], for which the inhibition at 10 µM was more than 50%.

With `Cc1ccc2cc(Nc3nc(N4CCOCC4)nc(N4CCOCC4)n3)ccc2n1` [Example 12, (4,6-Dimorpholin-4-yl-[1,3,5]triazin-2-yl)-(2-methyl-quinolin-6-yl)-amine], the inhibition at 10 µM was less than 50%.

As to `Cc1nc(-c2ccccn2)nc(NCCNc2ccc(C(F)(F)F)cn2)c1Cl` [Example 4, N-(5-Chloro-6-methyl-2-pyridin-2-yl-pyrimidin-4-yl)-N′-(5-trifluoromethyl-pyridin-2-yl)-ethane-1,2-diamine], the inhibition at 10 µM is less than 50%.

Regarding `c1ccc(N(c2ccccc2)c2nc(N3CCOCC3)nc(-n3ccnc3)n2)cc1` [Example 10, (4-Imidazol-1-yl-6-morpholin-4-yl-[1,3,5]triazin-2-yl)-diphenyl-amine], the inhibition at 10 µM is more than 50%.

With `Oc1cccc(/C=N/Nc2cc(N3CCOCC3)nc(N3CCOCC3)n2)c1` [Example 5, 3-[(2,6-Dimorpholin-4-yl-pyrimidin-4-yl)-hydrazonomethyl]-phenol], the inhibition at 10 µM is more than 50%.

On to `Cc1nc(-c2ccccn2)nc(NCCNc2cc(C(F)(F)F)ccn2)c1Cl` [Example 2, N-(5-Chloro-6-methyl-2-pyridin-2-yl-pyrimidin-4-yl)-N′-(4-trifluoromethyl-pyridin-2-yl)-ethane-1,2-diamine], for which the inhibition at 10 µM was less than 50%.

Consider `CN(c1ccccc1)c1nc(N2CCOCC2)nc(-n2ccnc2)n1` [Example 11, (4-Imidazol-1-yl-6-morpholin-4-yl-[1,3,5]triazin-2-yl)-methyl-phenyl-amine], for which the inhibition at 10 µM was less than 50%.

Regarding `Nc1nc(-c2ccccn2)nc(N)c1Cc1ccccc1F` [Example 3, 5-(2-Fluoro-benzyl)-2-pyridin-2-yl-pyrimidine-4,6-diamine], the inhibition at 10 µM is less than 50%.

Consider `Cc1nc(N/N=C/c2ccc(O)cc2O)cc(N2CCOCC2)n1` [Example 6, 4-[(2-Methyl-6-morpholin-4-yl-pyrimidin-4-yl)-hydrazonomethyl]-benzene-1,3-diol], for which the inhibition at 10 µM is more than 50%.

For `Oc1ccccc1/C=N/Nc1cc(N2CCOCC2)nc(N2CCOCC2)n1` [Example 7, 2-[(2,6-Dimorpholin-4-yl-pyrimidin-4-yl)-hydrazonomethyl]-phenol], the inhibition at 10 µM is more than 50%.

For `C/C(=N\Nc1cc(N2CCOCC2)nc(C)n1)c1ccc(F)cc1` [Example 8, N-[1-(4-Fluoro-phenyl)-ethylidene]-N′-(2-methyl-6-morpholin-4-yl-pyrimidin-4-yl)-hydrazine], the inhibition at 10 µM is less than 50%.
